Source: ChEMBL document CHEMBL1800000, “Identification of non-amidine inhibitors of acid-sensing ion channel-3 (ASIC3)” (Bioorg Med Chem Lett, 2011)
The source made the active and inactive calls. The calls are words filed in the database; no cut-off is given here.

Key:
[1] = molecular target: T1, Acid-sensing ion channel 3 (Homo sapiens, UniProt Q9UHC3); experiment: Inhibition of ASIC3 assessed as inhibition of peak current by electrophysiology method
T1 sequence (Q9UHC3 whole entry): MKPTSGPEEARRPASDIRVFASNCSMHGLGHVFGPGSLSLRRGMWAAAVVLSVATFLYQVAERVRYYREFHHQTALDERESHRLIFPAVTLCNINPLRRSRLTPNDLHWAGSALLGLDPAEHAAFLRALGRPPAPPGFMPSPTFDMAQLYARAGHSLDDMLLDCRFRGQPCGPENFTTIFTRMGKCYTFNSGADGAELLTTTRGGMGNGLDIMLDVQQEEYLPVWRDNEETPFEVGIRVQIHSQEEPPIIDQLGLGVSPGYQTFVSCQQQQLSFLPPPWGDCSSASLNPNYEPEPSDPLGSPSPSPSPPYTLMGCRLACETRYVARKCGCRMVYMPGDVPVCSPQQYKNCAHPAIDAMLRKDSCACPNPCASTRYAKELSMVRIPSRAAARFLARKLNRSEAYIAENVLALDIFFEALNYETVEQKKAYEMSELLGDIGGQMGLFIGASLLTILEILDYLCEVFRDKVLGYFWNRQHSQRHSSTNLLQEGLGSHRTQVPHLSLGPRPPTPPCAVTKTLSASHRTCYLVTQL

[2] = Ratio of drug level in brain to plasma in […]; type: ADME; settings: rat, read-out: BPR
[3] = Inhibition of serotonin receptor
[4] = Inhibition of muscarinic receptor
[5] = Inhibition of adrenergic receptor
[6] = Inhibition of dopamine receptor
[7] = molecular target: T2, Acid-sensing ion channel 1 (Homo sapiens, UniProt P78348); experiment: Inhibition of ASIC1a
T2 sequence (P78348 whole entry): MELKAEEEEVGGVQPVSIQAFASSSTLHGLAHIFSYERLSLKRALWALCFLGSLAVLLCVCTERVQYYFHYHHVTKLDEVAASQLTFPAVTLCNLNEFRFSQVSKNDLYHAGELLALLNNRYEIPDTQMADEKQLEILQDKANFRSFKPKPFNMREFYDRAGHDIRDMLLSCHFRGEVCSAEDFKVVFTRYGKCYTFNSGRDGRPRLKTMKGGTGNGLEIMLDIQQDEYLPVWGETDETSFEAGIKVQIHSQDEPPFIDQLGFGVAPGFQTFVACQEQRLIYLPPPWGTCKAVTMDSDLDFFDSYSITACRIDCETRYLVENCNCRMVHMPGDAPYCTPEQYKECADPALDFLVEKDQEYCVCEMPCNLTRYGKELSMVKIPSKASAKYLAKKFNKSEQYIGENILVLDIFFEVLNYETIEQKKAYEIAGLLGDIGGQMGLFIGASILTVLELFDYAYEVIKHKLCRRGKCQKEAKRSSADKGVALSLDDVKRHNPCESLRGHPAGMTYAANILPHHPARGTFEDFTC

[8] = system: Rattus norvegicus; experiment: Antihyperalgesic effect in complete Freund's adjuvant-induced Sprague-Dawley rat inflammatory pain model assessed as reversal of mechanical hypersensitivity at 100 mg/kg, po after 30 mins; type: functional, organism-based; design: dose 100 mg/kg
[9] = Plasma concentration in Sprague-Dawley rat at 100 mg/kg, po after 30 mins; type: ADME, organism-based; design: dose 100 mg/kg, route oral
[10] = system: Brain; experiment: Drug uptake in Sprague-Dawley rat brain at 100 mg/kg, po; type: ADME, organism-based; design: dose 100 mg/kg, route oral; settings: in vivo, read-out: Drug uptake
[11] = Ratio of drug level in brain to plasma in Sprague-Dawley rat at 100 mg/kg, po; type: ADME, organism-based; design: dose 100 mg/kg, route oral; settings: read-out: BPR
[12] = system: Rattus norvegicus; experiment: Induction of sedative activity in Sprague-Dawley rat at 100 mg/kg, po; type: organism-based; design: dose 100 mg/kg, route oral; settings: in vivo
[13] = system: Rattus norvegicus; experiment: Toxicity in Sprague-Dawley rat brain assessed as lethargy at 100 mg/kg, po; type: organism-based; design: dose 100 mg/kg, route oral; settings: in vivo

| SMILES | IC50 [1] [nM] | further results |
| --- | --- | --- |
| CC(c1cccc(C#Cc2ccc3c(Cl)c(CN)sc3c2)c1)N(C)C (stereo unspecified) | 4300 |  |
| CC1c2cc(C#Cc3ccc4c(Cl)c(CN)sc4c3)ccc2CCN1C (stereo unspecified) | 270 |  |
| NCc1sc2cc(C#Cc3cccc4c3CCCC4N3CCCC3)ccc2c1Cl (stereo unspecified) | 2500 |  |
| NCc1sc2cc(C#Cc3ccccc3)ccc2c1Cl | 2800 |  |
| CN(C)C1CCc2c(C#Cc3ccc4c(Cl)c(CN)sc4c3)cccc21 (stereo unspecified) | 190 |  |
| NCc1ccc2cc(C#Cc3ccccc3)ccc2c1 | 4800 |  |
| CN(C)C1CCCc2c(C#Cc3ccc4c(Cl)c(CN)sc4c3)cccc21 (stereo unspecified) | 230 |  |
| N=C(N)c1ccc2cc(C#Cc3ccccc3)ccc2c1 | 6300 |  |
| NCc1sc2cc(C#Cc3ccc4c(c3)CN(CC(F)F)CC4)ccc2c1Cl | 10200 |  |
| CC(C)C1c2cc(C#Cc3ccc4cc(C(=N)N)ccc4c3)ccc2CCN1C (stereo unspecified) | 460 | Kp [2]: 2.6; IC50 [3]: < 10000 nM; IC50 [4]: < 10000 nM; IC50 [5]: < 10000 nM; IC50 [6]: < 10000 nM |
| N=C(N)c1sc2cc(C#Cc3ccccc3)ccc2c1Cl | 3400 |  |

Now from value to molecule, other results behind:

| IC50 [1] [nM] | SMILES | further results |
| --- | --- | --- |
| > 50000 | NCc1sc2cc(C#Cc3ccc4c(c3)CN(CC(F)(F)F)CC4)ccc2c1Cl |  |
| 310 | CC(C)N1CCc2ccc(C#Cc3ccc4c(Cl)c(CN)sc4c3)cc2C1 |  |
| 230 | CCN1CCc2ccc(C#Cc3ccc4c(Cl)c(CN)sc4c3)cc2C1 |  |
| 680 | CN1CCc2ccc(C#Cc3ccc4c(Cl)c(CN)sc4c3)cc2C1 |  |
| 17100 | NCc1sc2cc(C#Cc3ccc4c(c3)CN(Cc3ccccc3)CC4)ccc2c1Cl |  |
| > 50000 | CC(C)(C)OC(=O)N1CCc2ccc(C#Cc3ccc4c(Cl)c(CN)sc4c3)cc2C1 |  |
| 220 | NCc1sc2cc(C#Cc3ccc4c(c3)CNCC4)ccc2c1Cl | IC50 [7]: 224 nM; Activity [8]: Active; concentration at 0.5 h [9]: 3.6 µM; concentration [10]: 14 µM; Kp [11]: 6; Kp [2]: 15.4; Activity [12]: Toxic; Activity [13]: Toxic |
